Data as given in patent publication US11291620B2, “Avobenzone-dendrimer conjugates” (NEW YORK UNIVERSITY, priority 2018, dated 2022).

Columns and labels:
[1] = UV-Vis calibration: molar attenuation coefficient at 357 nM in isopropanol; assay type: physicochemical; details: run in triplicate, per mole of compound or dendrimer conjugate
Text: Avobenzone and the avobenzone conjugates were each dissolved in isopropanol and the titrations were run in triplicate to calculate extinction coefficients for each conjugate.
UV analysis was run on each conjugate to test the absorbance and degradation profile of each compound. The linker and scaffold must not shift the UV absorbance profile of the avobenzone if it is to be used as an additive in sunscreen formulations. Otherwise, it might no longer be active as a UV-A filter. UV calibrations were run for free avobenzone, avobenzone with linker, and each class and generation of dendrimer-avobenzone conjugate to compare the modified molecules to the original under the same conditions.
The molar attenuation coefficient for each compound was calculated at 357 nM, the absorption maximum in the UVA-1 range. […] Additionally, no shift was observed after ligation to the dendrimer scaffolds.
Extinction coefficient curves were taken in isopropanol, a protic solvent known to stabilize avobenzone under UV irradiation, allowing the curve to be run on a single sample of avobenzone per curve without loss of activity (Mturi et al., J. Phoochem. Pholobiol. 200:410-20 (2008), which is hereby incorporated by reference in its entirety).

[2] = UV decay / UV stability: change of absorbance under UV lamp over four hours; assay type: physicochemical; details: ethyl acetate, UV lamp 365 nM, peak at 357 nm, triplicate, average
Text: Avobenzone and the avobenzone conjugates were each dissolved in ethyl acetate, unless otherwise noted, and sealed in airtight quartz cuvettes. […] The avobenzone decay curves were run in triplicate and extra decay curves run in duplicate. UV stability experiments were run in triplicate in ethyl acetate (Mturi et al., J. Photochem. […] Unlike isopropanol, this solvent is known to encourage degradation and was chosen so that the experimental time scales would be similar to the time scale of sun exposure in vivo. Due to FDA regulations, all commercial sunscreens are labeled with instructions to reapply every two hours. The avobenzone systems were tested over four hours, double that time. The avobenzone, avobenzone linker, or avobenzone-dendrimer conjugate was dissolved in a small amount of isopropanol. In each study 90 μL of the stock solution was added to 3 mL of ethyl acetate and sealed in an airtight quartz cuvette. The initial absorptions were measured and the samples were sealed in quartz cuvettes and left under a UV lamp emitting at 365 nM. The absorption profile was measured at regular intervals.

COc1ccc(C(=O)C(CCCCCCCCCCCO)C(=O)c2ccc(C(C)(C)C)cc2)cc1 (stereo not shown) [avobenzone with linker]
molar attenuation coefficient (for the compound / conjugate) [1]: 2,899 M^−1 cm^−1 | final absorbance as % of the initial absorbance [2]: 108±1.8%

COc1ccc(C(=O)CC(=O)c2ccc(C(C)(C)C)cc2)cc1 [bare avobenzone, 4-Tert-butyl-4′-methoxydibenzoylmethane]
molar attenuation coefficient (for the compound / conjugate) [1]: 1,039 M^−1 cm^−1 | final absorbance as % of the initial absorbance [2]: 90.7±1.4%
